Laboratory results reported in US10526337B2, “Heteroaryl derivative or pharmaceutically acceptable salt thereof, preparation method therefor, and pharmaceutical composition for preventing or treating diseases associated with PI3 kinases, containing same as active ingredient” (KOREA RESEARCH INSTITUTE OF CHEMICAL TECHNOLOGY, priority 2015, dated 2020).

Columns and labels:
Conditions in all cases: ATP=10 uM, sample concentration=100 nM
PI3 Kinase (p120γ) (h) = biological target: T1, PI3 Kinase (p120γ) (h) (Homo sapiens, UniProt P48736); assay: Inhibition of phosphatidylinositol 3-kinase gamma (PI3K γ), pAkt Western blotting in C5a-stimulated RAW264.7 macrophages; assay type: cell-based, mouse
T1 construct: endogenous in cells; host or cells: RAW264.7
Procedure, shortened: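 Enzyme: PI3Kγ activity measured at ATP=10 uM with compound at 100 nM. Cellular: RAW264.7 macrophages treated with compound 1.5 h, then stimulated with 10 ng/mL C5a for 5 min; lysates (10 μg protein) probed by Western blot for pAkt (Ser473 or Thr308), ECL detection.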

[1] = biological target: T2, PI3 Kinase (p110α/p85α) (h) (Homo sapiens, UniProt P42336); assay: Inhibition of phosphatidylinositol 3-kinase alpha (PI3K α), pAkt Western blotting in EGF-stimulated MDA-MB-453 cells; assay type: cell-based
T2 construct: endogenous in cells; host or cells: MDA-MB-453
T2 sequence (P42336 whole entry): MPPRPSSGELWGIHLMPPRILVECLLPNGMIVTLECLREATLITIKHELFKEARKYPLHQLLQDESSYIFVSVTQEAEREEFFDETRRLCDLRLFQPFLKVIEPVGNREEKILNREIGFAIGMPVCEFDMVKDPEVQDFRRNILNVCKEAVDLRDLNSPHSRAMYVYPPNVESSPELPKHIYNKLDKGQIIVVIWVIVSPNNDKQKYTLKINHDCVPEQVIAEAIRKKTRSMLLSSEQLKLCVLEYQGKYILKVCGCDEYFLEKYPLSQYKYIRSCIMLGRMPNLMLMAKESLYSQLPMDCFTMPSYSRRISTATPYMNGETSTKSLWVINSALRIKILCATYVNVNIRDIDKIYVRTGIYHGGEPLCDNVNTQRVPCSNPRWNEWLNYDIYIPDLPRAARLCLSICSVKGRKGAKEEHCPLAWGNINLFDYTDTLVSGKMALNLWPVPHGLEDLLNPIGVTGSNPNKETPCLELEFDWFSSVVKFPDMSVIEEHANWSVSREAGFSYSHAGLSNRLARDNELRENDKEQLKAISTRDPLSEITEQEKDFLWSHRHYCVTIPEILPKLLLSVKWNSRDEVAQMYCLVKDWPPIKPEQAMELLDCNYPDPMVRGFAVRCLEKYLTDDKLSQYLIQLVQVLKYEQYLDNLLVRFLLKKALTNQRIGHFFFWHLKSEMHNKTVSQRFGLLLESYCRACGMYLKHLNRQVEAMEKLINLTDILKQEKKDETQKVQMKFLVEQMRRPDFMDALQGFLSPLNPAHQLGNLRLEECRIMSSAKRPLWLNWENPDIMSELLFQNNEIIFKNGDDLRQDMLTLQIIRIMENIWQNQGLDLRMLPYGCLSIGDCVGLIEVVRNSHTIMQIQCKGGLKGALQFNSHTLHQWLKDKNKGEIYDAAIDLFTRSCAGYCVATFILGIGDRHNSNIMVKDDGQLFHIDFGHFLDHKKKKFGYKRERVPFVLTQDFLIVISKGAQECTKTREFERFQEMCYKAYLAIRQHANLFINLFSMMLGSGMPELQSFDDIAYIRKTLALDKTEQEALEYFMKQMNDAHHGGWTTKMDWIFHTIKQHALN
T2 sequence (P27986 2-724 partner limits assumed): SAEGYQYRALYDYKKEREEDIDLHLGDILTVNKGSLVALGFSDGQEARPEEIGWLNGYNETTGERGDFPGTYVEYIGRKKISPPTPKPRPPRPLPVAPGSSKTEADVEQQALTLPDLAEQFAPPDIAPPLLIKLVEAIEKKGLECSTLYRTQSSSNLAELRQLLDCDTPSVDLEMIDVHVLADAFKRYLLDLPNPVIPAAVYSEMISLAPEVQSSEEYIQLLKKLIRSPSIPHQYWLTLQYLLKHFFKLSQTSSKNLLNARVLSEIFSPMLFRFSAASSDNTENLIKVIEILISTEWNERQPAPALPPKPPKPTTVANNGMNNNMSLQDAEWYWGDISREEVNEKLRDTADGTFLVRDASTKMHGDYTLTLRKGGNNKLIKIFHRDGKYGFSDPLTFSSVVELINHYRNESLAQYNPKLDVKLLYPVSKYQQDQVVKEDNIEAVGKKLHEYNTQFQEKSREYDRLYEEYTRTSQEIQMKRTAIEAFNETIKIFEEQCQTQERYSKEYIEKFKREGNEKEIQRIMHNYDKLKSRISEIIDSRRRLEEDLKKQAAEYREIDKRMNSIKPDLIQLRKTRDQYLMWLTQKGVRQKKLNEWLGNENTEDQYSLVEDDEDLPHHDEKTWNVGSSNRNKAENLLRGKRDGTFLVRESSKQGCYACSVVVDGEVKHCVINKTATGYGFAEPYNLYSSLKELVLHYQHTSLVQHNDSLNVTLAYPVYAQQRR
Method: The inhibition of phosphatidylinositol 3 kinase alpha (PI3K α) by those compounds prepared in Examples 1˜98 was investigated by the following experiment. The inhibition activity of each compound was measured in the following conditions: ATP=10 uM, and sample concentration=100 nM.
Human breast cancer cells (MDA-MB-453) cultured in DMEM (Dulbecco's Modified Eagle Medium, Hyclon, SH30243.01) supplemented with 10% fetal bovine serum (Hyclon, USA) were distributed in a 12-well plate at the density of 1,000,000 cells/well. The cells were stabilized in a 37° C. CO2 for 24 hours and then treated with each compound for 1 and half hours. The cells were treated with 10 ng/mL of EGF (Epidermal Growth Factor, 10 μg/mL; R&D, 2150-C5) to increase the intracellular activity of PI3K alpha. 5 minutes later, the medium was discarded and the cells were washed with cold PBS (phosphate buffered saline, Gibco, 14190-250). PBS was then eliminated completely by using a pipette. Western blotting was performed as described in step 2 to evaluate the intracellular PI3K alpha activity.
(§1) The stimulated cells were transferred in a 1.5 mL tube, followed by centrifugation at 3000 rpm for 1 minute. 100 μL of RIPA buffer (radioimmunoprecipitation assay buffer, 50 mM Tris-HCl, 5 mM EDTA, 150 mM NaCl, 1% NP-40, 1 mM PMSF, pH 8.0; ELPIS, Korea) was added thereto, which was stored in a 4° C. refrigerator for 12 hours. Centrifugation was performed at 4° C. at 14,000 rpm for 20 minutes. The supernatant was transferred into a new 1.5 mL tube. Protein was quantified by BCA (bicinchoninic acid) method and samples were prepared. The composition of the sample was as follows: sample buffer (ELPIS, EBA-1052) 5×, protein 10 μg, and 1× sample buffer to make the total volume 20 μL. The sample was heated at 100° C. for 5 minutes. The evaporated water vapor was condensed in a refrigerator. The liquid stained on the wall was fallen down by centrifugation for a few seconds. The sample proceeded to 10% SDS (Sodium Dodecyl Sulfate) acrylamide gel for separation. The separated protein was transferred onto PVDF (poly-vinyl difluoride) membrane, followed by reaction with pAkt (phospho protein kinase B) antibody (Ser473 or Thr308; Cell signaling, 9271s or 13038s) for 12 hours at 4° C. The membrane was washed with TBST (Tris-Buffered Saline with Tween 20, 10 mM Tris-HCl, pH 7.5, 150 mM NaCl, 0.1% Tween-20) three times for 5 minutes each, to which the secondary antibody (rabbit antibody, Santacruz, sc-2004) was added, followed by reaction at room temperature for 2 hours. The membrane was washed with TBST three times for 10 minutes each, to which ECL (enhanced chemiluminescence, Thermo, NCI34095KR) was sprayed. Bands were investigated by using LAS-3000.

[2] = biological target: T3, PI3 Kinase (p110β/p86α) (h) (Homo sapiens, UniProt P42338); assay: Inhibition of phosphatidylinositol 3-kinase beta (PI3K β), pAkt Western blotting in LPA-stimulated PC3 cells; assay type: cell-based
T3 construct: endogenous in cells; host or cells: PC3
T3 sequence (P42338 whole entry): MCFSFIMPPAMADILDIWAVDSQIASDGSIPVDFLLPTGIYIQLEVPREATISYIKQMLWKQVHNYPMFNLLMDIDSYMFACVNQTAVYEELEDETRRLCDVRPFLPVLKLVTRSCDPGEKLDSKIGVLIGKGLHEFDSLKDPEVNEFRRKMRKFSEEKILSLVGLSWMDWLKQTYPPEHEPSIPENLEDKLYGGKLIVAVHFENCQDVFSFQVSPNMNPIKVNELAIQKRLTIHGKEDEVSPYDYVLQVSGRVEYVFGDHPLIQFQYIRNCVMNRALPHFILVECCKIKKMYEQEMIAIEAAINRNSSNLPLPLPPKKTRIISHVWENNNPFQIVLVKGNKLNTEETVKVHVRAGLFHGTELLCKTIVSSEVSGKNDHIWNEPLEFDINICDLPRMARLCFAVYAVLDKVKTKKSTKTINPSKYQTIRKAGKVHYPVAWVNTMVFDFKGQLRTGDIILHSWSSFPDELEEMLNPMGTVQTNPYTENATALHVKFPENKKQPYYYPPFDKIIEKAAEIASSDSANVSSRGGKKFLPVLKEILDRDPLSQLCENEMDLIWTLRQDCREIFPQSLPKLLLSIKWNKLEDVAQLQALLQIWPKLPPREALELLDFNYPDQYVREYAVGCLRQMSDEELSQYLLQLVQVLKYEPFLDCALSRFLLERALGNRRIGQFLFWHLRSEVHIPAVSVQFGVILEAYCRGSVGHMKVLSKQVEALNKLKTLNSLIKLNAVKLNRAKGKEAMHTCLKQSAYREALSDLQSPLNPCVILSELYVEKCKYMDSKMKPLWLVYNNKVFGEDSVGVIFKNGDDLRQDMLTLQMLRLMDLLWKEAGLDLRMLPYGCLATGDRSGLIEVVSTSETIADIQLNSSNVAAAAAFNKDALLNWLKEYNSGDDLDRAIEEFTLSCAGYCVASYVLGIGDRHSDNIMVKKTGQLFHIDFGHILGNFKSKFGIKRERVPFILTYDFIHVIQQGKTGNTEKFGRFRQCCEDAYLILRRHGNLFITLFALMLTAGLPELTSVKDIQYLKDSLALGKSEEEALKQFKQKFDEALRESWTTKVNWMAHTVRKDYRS
T3 sequence (P27986 whole entry partner): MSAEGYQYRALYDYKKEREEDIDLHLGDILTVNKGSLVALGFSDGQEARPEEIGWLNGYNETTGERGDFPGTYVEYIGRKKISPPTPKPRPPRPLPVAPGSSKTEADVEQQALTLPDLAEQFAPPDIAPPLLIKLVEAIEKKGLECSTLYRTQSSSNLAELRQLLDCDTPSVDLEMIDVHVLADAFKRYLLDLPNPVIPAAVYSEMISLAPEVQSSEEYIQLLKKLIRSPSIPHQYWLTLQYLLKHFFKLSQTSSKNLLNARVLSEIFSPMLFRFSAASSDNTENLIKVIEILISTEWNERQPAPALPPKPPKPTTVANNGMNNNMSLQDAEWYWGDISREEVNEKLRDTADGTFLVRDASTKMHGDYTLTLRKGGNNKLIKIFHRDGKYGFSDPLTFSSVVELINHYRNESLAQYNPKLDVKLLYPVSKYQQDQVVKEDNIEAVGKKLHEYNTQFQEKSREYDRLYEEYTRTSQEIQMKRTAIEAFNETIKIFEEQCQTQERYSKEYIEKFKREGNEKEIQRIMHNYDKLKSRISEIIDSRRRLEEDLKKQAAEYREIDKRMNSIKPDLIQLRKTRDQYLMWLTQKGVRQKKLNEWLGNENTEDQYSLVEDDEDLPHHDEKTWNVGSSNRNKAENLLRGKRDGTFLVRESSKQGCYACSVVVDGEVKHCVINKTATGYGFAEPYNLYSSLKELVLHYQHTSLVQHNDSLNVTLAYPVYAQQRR
Method: as §1
The inhibition of phosphatidylinositol 3 kinase beta (PI3K β) by those compounds prepared in Examples 1˜98 was investigated by the following experiment. The inhibition activity of each compound was measured in the following conditions: ATP=10 uM, and sample concentration=100 nM.
Human prostate cancer cells (PC3 cells) cultured in DMEM (Dulbecco's Modified Eagle Medium, Hyclon, SH30243.01) supplemented with 10% fetal bovine serum (Hyclon, USA) were distributed in a 12-well plate at the density of 1,000,000 cells/well. The cells were stabilized in a 37° C. CO2 for 24 hours and then treated with each compound for 1 and half hours. The cells were treated with 10 ng/mL of LPA (lysophosphatidic acid, 10 μg/mL; R&D, 2150-05) to increase the intracellular activity of PI3K beta. 5 minutes later, the medium was discarded and the cells were washed with cold PBS (phosphate buffered saline, Gibco, 14190-250). PBS was then eliminated completely by using a pipette. Western blotting was performed according to the same manner as described in step 2 of Experimental Example 1 to evaluate the intracellular PI3K beta activity.

[3] = biological target: T4, PI3 Kinase (p110δ/p85α) (h) (Homo sapiens, UniProt O00329); assay: Inhibition of phosphatidylinositol 3-kinase delta (PI3K δ), pAkt Western blotting in IgM-stimulated Raji cells; assay type: cell-based
T4 construct: endogenous in cells; host or cells: Raji
T4 sequence (O00329 whole entry): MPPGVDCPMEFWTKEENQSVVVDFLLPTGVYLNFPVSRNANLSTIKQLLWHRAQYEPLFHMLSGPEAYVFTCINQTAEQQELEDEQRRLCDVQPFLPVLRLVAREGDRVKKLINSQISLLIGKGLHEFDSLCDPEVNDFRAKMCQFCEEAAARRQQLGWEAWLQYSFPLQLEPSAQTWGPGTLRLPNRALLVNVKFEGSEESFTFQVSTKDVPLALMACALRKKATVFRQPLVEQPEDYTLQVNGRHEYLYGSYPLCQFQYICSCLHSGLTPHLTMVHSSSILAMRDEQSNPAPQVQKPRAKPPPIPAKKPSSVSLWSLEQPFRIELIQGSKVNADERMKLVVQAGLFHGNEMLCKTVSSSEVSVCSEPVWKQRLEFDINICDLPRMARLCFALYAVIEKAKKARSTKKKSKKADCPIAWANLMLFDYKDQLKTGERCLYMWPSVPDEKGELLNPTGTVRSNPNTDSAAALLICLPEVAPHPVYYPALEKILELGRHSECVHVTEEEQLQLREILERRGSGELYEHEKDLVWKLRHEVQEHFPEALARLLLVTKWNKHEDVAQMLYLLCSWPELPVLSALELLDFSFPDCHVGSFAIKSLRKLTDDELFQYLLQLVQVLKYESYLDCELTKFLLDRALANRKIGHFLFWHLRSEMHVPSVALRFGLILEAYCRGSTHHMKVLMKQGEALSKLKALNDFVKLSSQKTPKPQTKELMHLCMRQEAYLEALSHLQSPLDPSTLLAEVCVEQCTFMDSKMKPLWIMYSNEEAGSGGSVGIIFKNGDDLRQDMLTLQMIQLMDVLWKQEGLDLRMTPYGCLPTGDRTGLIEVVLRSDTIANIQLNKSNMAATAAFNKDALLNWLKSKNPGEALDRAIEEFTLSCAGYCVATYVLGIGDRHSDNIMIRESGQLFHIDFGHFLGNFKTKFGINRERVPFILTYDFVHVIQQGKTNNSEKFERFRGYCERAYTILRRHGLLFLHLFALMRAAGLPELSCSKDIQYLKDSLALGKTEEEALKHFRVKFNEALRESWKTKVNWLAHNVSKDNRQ
T4 sequence (P27986 whole entry partner): as the sequence (P27986 whole entry partner) above
Procedure, shortened: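 Raji cells were treated with compound for 1.5 h, then stimulated with 0.25 μg/mL IgM for 30 min to activate PI3Kδ. Lysates were Western blotted for pAkt (Ser473 or Thr308) with ECL detection. Conditions stated: ATP=10 uM, sample concentration=100 nM.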

| IC50 (PI3 Kinase (p120γ) (h)) [nM] | IC50 [1] [nM] | IC50 [2] [nM] | IC50 [3] [nM] | SMILES |
| --- | --- | --- | --- | --- |
| 10 to 500 | > 500 | > 500 | < 10 | C[C@H](Nc1ncnc2[nH]ccc(=O)c12)c1nc2cccc(Cl)c2c(=O)n1-c1ccccn1 [Example 3, (S)-4-((1-(5-chloro-4-oxo-3-(pyridine-2-yl)-3,4-dihydroquinazoline-2-yl)ethyl)amino)pyrido[2,3-d]pyrimidine-5(8H)-one] |
| > 500 | > 500 | > 500 | 10 to 500 | C[C@H](Nc1ncnc2[nH]ccc(=O)c12)c1nc2ccc(F)cc2cc1-c1ccccn1 [Example 7-1, (S)-4-((1-(6-fluoro-3-(pyridine-2-yl)quinoline-2-yl)ethyl)amino)pyrido[2,3-d]pyrimidine-5(8H)-one] |
| 10 to 500 | 10 to 500 | 10 to 500 | < 10 | Cc1c[nH]c2nc(N)nc(N[C@@H](C)c3cc4cccc(Cl)c4c(=O)n3-c3ccccc3)c2c1=O [Example 18, (S)-2-amino-4-((1-(8-chloro-1-oxo-2-phenyl-1,2-dihydroisoquinoline-3-yl)ethyl)amino)-6-methylpyrido[2,3-d]pyrimidine-5(8H)-one] |
| 10 to 500 | > 500 | > 500 | < 10 | C[C@H](Nc1ncnc2[nH]ccc(=O)c12)c1cc2ccc(F)cc2nc1-c1cccc(F)c1 [Example 8, (S)-4-((1-(7-fluoro-2-(3-fluorophenyl)quinoline-3-yl)ethyl)amino)pyrido[2,3-d]pyrimidine-5(8H)-one] |
| 10 to 500 | > 500 | > 500 | < 10 | CC(Nc1ncnc2[nH]ccc(=O)c12)c1nc2cccc(Cl)c2cc1-c1ccccn1 (centres unmarked) [Example 33, 4-((1-(5-chloro-3-(pyridine-2-yl)quinoline-2-yl)ethyl)amino)pyrido[2,3-d]pyrimidine-5(8H)-one] |
| > 500 | > 500 | > 500 | > 500 | C[C@H](Nc1ncnc2[nH]cc(C#N)c(=O)c12)c1cc2cccc(Cl)c2c(=O)n1-c1ccccc1 [Example 19, (S)-4-((1-(8-chloro-1-oxo-2-phenyl-1,2-dihydroisoquinoline-3-yl)ethyl)amino)-5-oxo-5,8-dihydropyrido[2,3-d]pyrimidine-6-carbonitrile] |
| 10 to 500 | > 500 | > 500 | 10 to 500 | CCN1CNc2ncnc(N[C@@H](C)c3cc4cccc(Cl)c4c(=O)n3-c3ccccc3)c2C1=O [Example 60, (S)-5-(1-(8-chloro-1-oxo-2-phenyl-1,2-dihydroisoquinoline-3-yl)ethylamino)-3-ethyl-2,3-dihydropyrimido[4,5-d]pyrimidine-4(1H)-one] |
| > 500 | > 500 | > 500 | 10 to 500 | CC(Nc1ncnc2[nH]ccc(=O)c12)c1nc2ccc(F)cc2c(-c2ccccn2)c1-c1ccccn1 (centres unmarked) [Example 26, 4-((1-(6-fluoro-3,4-di(pyridine-2-yl)quinoline-2-yl)ethyl)amino)pyrido[2,3-d]pyrimidine-5(8H)-one] |
| < 10 | > 500 | > 500 | < 10 | C[C@H](Nc1nc(N)nc2[nH]ccc(=O)c12)c1nc2ccc(F)cc2cc1-c1ccccn1 [Example 25, (S)-2-amino-4-((1-(6-fluoro-3-(pyridine-2-yl)quinoline-2-yl)ethyl)amino)pyrido[2,3-d]pyrimidine-5(8H)-one] |
| > 500 | > 500 | > 500 | 10 to 500 | C[C@H](Nc1ncnc2[nH]ccc(=O)c12)c1nc2ccc(F)cc2c(=O)n1-c1cccnc1 [Example 28, (S)-4-((1-(6-fluoro-4-oxo-3-(pyridine-3-yl)-3,4-dihydroquinazoline-2-yl)ethyl)amino)pyrido[2,3-d]pyrimidine-5(8H)-one] |
| 10 to 500 | > 500 | > 500 | 10 to 500 | C[C@H](Nc1ncnc2[nH]ccc(=O)c12)c1nc2ccc(F)cc2c(-c2ccccn2)c1-c1ccccc1 [Example 27, (S)-4-((1-(6-fluoro-3-phenyl-4-(pyridine-2-yl)quinoline-2-yl)ethyl)amino)pyrido[2,3-d]pyrimidine-5(8H)-one] |
